These results are taken from PMC4089486, “Structural and biochemical analyses of alanine racemase from the multidrug-resistant Clostridium difficile strain 630” (Acta Crystallographica Section D: Biological Crystallography, 2014).

Experiment [1] addresses T1, CdAlr (C. difficile alanine racemase; CdAlrWT) (Clostridioides difficile, UniProt Q180W0).
T1 construct: gene alr2; monomer 43306 Da, homodimer; WT preparation partly cleaved at position 271 (fragments 1-271 and 272-382)
As to the kind of experiment: X-ray crystal structure, […] A. The class given is binding. The following applies: covalent; internal aldimine with Lys39.

For experiment [2], the target named is T1, CdAlr (C. difficile alanine racemase; CdAlrWT). Briefly: X-ray co-crystal structure, […] A. The following applies: covalent; adduct with PLP (DCS) in the active site; 100 mM cycloserine. The class given is binding.

T1 sequence (Q180W0 entry or part of it): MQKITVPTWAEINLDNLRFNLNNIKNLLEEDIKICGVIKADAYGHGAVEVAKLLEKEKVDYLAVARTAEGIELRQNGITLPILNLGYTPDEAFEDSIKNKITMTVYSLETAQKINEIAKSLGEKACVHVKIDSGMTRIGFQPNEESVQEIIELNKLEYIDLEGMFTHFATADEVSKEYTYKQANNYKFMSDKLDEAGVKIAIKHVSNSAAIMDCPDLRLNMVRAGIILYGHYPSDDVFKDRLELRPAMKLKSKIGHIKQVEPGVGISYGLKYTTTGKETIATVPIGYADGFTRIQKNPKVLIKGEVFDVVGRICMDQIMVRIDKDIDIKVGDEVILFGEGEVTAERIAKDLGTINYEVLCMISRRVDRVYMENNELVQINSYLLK

Consider `Cc1ncc(COP(=O)(O)O)c(C=O)c1O` [PLP], for which the “X-ray crystal structure, 2.10 A” value in experiment [1] is “Two structures (CdAlrK271T and CdAlrPLP) contain the cofactor PLP”.

As for `N[C@@H]1CONC1=O` [cycloserine], in experiment [2], the “X-ray co-crystal structure, 2.26 A” value is reported as “In the CdAlrcycloserine structure, cycloserine forms a covalent adduct with PLP”.
